Reference: the NIST ThermoML archive (doi:10.1021/acs.jced.6b00350)

Conditions: Liquid, Hot wire method

FC(F)CC(F)(F)F [1,1,1,3,3-pentafluoropropane]
Conditions | thermal conductivity [W/m/K]
323.16 K, 330 kPa | 0.08023
323.16 K, 19684 kPa | 0.09037
323.16 K, 19687 kPa | 0.09046
323.23 K, 13828 kPa | 0.0878
323.23 K, 13836 kPa | 0.08777
323.31 K, 8785 kPa | 0.08509
323.31 K, 8786 kPa | 0.08508
323.33 K, 69855 kPa | 0.1079
323.33 K, 69859 kPa | 0.1079
323.4 K, 58551 kPa | 0.1046
323.41 K, 58550 kPa | 0.1047
323.46 K, 49806 kPa | 0.1018
323.46 K, 49813 kPa | 0.1019
323.52 K, 40518 kPa | 0.09873
323.52 K, 40523 kPa | 0.09883
323.56 K, 33191 kPa | 0.09593
323.57 K, 33190 kPa | 0.0959
323.65 K, 26145 kPa | 0.09305
323.65 K, 26148 kPa | 0.09303
323.66 K, 4345 kPa | 0.08263
323.67 K, 4353 kPa | 0.08281
323.71 K, 19685 kPa | 0.09038
323.72 K, 19683 kPa | 0.09025
323.74 K, 330 kPa | 0.08004
323.74 K, 331 kPa | 0.08014
323.8 K, 13825 kPa | 0.08771
323.8 K, 13826 kPa | 0.08762
323.88 K, 8784 kPa | 0.08522
323.89 K, 8785 kPa | 0.08516
341.35 K, 31717 kPa | 0.09048
341.36 K, 791 kPa | 0.07387
341.36 K, 807 kPa | 0.07373
341.36 K, 31723 kPa | 0.09099
341.37 K, 4061 kPa | 0.07637
341.37 K, 4066 kPa | 0.07637
341.37 K, 8227 kPa | 0.07909
341.38 K, 8222 kPa | 0.07861
341.39 K, 12846 kPa | 0.08132
341.4 K, 12858 kPa | 0.08189
341.41 K, 18251 kPa | 0.08455
341.42 K, 18258 kPa | 0.08459
341.43 K, 24450 kPa | 0.08726
341.44 K, 24457 kPa | 0.08772
341.44 K, 39673 kPa | 0.09407
341.44 K, 39675 kPa | 0.0951
341.65 K, 48504 kPa | 0.09719
341.66 K, 48505 kPa | 0.09738
341.69 K, 58414 kPa | 0.1006
341.71 K, 58417 kPa | 0.101
341.73 K, 69248 kPa | 0.1039
341.75 K, 69269 kPa | 0.1038
341.77 K, 31709 kPa | 0.09087
341.77 K, 31711 kPa | 0.09067
341.79 K, 800 kPa | 0.07352
341.79 K, 8213 kPa | 0.07901
341.79 K, 8220 kPa | 0.07915
341.8 K, 798 kPa | 0.074
341.8 K, 4049 kPa | 0.07607
341.8 K, 4060 kPa | 0.07627
341.8 K, 12862 kPa | 0.08133
341.8 K, 18252 kPa | 0.08459
341.8 K, 18254 kPa | 0.0841
341.81 K, 12851 kPa | 0.08125
341.81 K, 24448 kPa | 0.08731
341.81 K, 24452 kPa | 0.08759
341.83 K, 39657 kPa | 0.09382
341.83 K, 39667 kPa | 0.09362
342.05 K, 48492 kPa | 0.09719
342.06 K, 48492 kPa | 0.09719
342.09 K, 58399 kPa | 0.1006
342.1 K, 58406 kPa | 0.1005
342.12 K, 69235 kPa | 0.1042
342.12 K, 69238 kPa | 0.104
342.21 K, 31695 kPa | 0.09091
342.23 K, 24443 kPa | 0.08756
342.23 K, 31701 kPa | 0.09082
342.24 K, 18254 kPa | 0.08456
342.24 K, 18263 kPa | 0.08459
342.24 K, 24457 kPa | 0.08773
342.25 K, 8211 kPa | 0.079
342.25 K, 8213 kPa | 0.0788
342.25 K, 12847 kPa | 0.08139
342.26 K, 12846 kPa | 0.08139
342.27 K, 4048 kPa | 0.07633
342.27 K, 39655 kPa | 0.09411
342.28 K, 795 kPa | 0.07417
342.28 K, 4064 kPa | 0.07591
342.28 K, 39659 kPa | 0.09393
342.29 K, 784 kPa | 0.07414
342.49 K, 48484 kPa | 0.09716
342.51 K, 48493 kPa | 0.09719
342.51 K, 58384 kPa | 0.1004
342.53 K, 58390 kPa | 0.1005
342.53 K, 69205 kPa | 0.104
342.54 K, 69218 kPa | 0.1038
342.7 K, 24435 kPa | 0.08753
342.71 K, 18288 kPa | 0.08467
342.71 K, 24437 kPa | 0.08761
342.72 K, 31697 kPa | 0.09082
342.72 K, 31698 kPa | 0.09091
342.73 K, 18277 kPa | 0.08453
342.74 K, 12836 kPa | 0.08165
342.75 K, 12854 kPa | 0.08161
342.75 K, 39640 kPa | 0.09416
342.75 K, 39649 kPa | 0.09419
342.77 K, 8198 kPa | 0.07878
342.77 K, 8214 kPa | 0.07886
342.8 K, 4060 kPa | 0.07628
342.81 K, 4048 kPa | 0.07623
342.82 K, 778 kPa | 0.074
342.83 K, 779 kPa | 0.07358
342.98 K, 48479 kPa | 0.09746
342.99 K, 48476 kPa | 0.09717
342.99 K, 58371 kPa | 0.1007
342.99 K, 69188 kPa | 0.1043
342.99 K, 69203 kPa | 0.1043
343 K, 58374 kPa | 0.1007
343.21 K, 24431 kPa | 0.0874
343.22 K, 24434 kPa | 0.0876
343.25 K, 18297 kPa | 0.0846
343.25 K, 18305 kPa | 0.08481
343.25 K, 31683 kPa | 0.09097
343.25 K, 31692 kPa | 0.09092
343.27 K, 39640 kPa | 0.09411
343.28 K, 39648 kPa | 0.09409
343.29 K, 12856 kPa | 0.08212
343.3 K, 12844 kPa | 0.08186
343.33 K, 8193 kPa | 0.07913
343.33 K, 8208 kPa | 0.07905
343.38 K, 4043 kPa | 0.07572
343.39 K, 4045 kPa | 0.07592
343.42 K, 777 kPa | 0.07373
343.43 K, 791 kPa | 0.07347
343.48 K, 69162 kPa | 0.1043
343.49 K, 69172 kPa | 0.1045
343.5 K, 48465 kPa | 0.09758
343.5 K, 58358 kPa | 0.1009
343.5 K, 58363 kPa | 0.1009
343.51 K, 48479 kPa | 0.0974
